Source: PMC8922279, “Identification of β-Lactams Active against Mycobacterium tuberculosis by a Consortium of Pharmaceutical Companies and Academic Institutions” (ACS Infectious Diseases, 2022)
Read-outs that look alike come from different tables or passages of the source.

Experiments:
[1] = female, 129sv DHP-1 knockout, mouse, in vivo
in vivo [2] = conditions: female, CD-1, mouse
E. coli = assay: Microbial spectrum, E. coli; format: cell-based, Escherichia coli; conditions: clavulanate 4 μg/mL; Table S4
in vivo [3] = conditions: female, 129sv DHP-1 knockout, mouse, sc, 50 mg/kg
in vivo [4] = conditions: DHP-1 knockout, mouse, sc
S. aureus = assay: Microbial spectrum, S. aureus; format: cell-based, Staphylococcus aureus; conditions: clavulanate 4 μg/mL; Table S4
P. aeruginosa = assay: Microbial spectrum, P. aeruginosa; format: cell-based, Pseudomonas aeruginosa; conditions: clavulanate 4 μg/mL; Table S4
in vitro [5] = conditions: SD, rat, plasma, pH 7.4, % bound to plasma
in vitro [6] = conditions: beagle, dog, plasma, pH 7.4
in vitro [7] = conditions: male, CD-1, mouse, plasma, Plasma stability % Remaining
in vitro [8] = conditions: cynomolgus monkey, plasma, pH 7.4
Mtb H37Rv [9] = assay: MIC90 against replicating (R) Mtb H37Rv, with or without clavulanate; format: cell-based, Mycobacterium tuberculosis; conditions: Table S4; for Mtb H37Rv R + CLAV (MIC90): clavulanate 4 μg/mL; for Mtb H37Rv R (MIC90): no clavulanate
in vitro [10] = conditions: human, plasma, pH 7.4, % bound to plasma
in vitro [11] = conditions: monkey, plasma
C. albicans = assay: Microbial spectrum, C. albicans; format: cell-based, Candida albicans; conditions: no clavulanate; Table S4
[12] = uninfected DHP-1 mice
in vitro [13] = conditions: beagle, dog, plasma
physchem [14] = conditions: simulated gi fluid, pH 6.5, FaSSIF Stability, % remaining
physchem [15] = conditions: simulated gi fluid, pH 1.2
in vitro [16] = conditions: human; for Papp A→B at 120 min, 3 μM / Papp B→A at 120 min, 3 μM: Caco-2, pH 7.4
in vitro [17] = conditions: SD, rat, plasma, Plasma stability % Remaining
in vitro [18] = conditions: human, plasma, Plasma stability % Remaining
Mtb H37Rv [19] = assay: MIC90 against nonreplicating (NR, 4-stress) Mtb H37Rv, with or without clavulanate; format: cell-based, Mycobacterium tuberculosis; conditions: 4-stress nonreplicating, Table S4; for Mtb H37Rv NR + CLAV (MIC90): clavulanate 4 μg/mL; for Mtb H37Rv NR (MIC90): no clavulanate
in vitro [20] = conditions: CD-1, mouse, plasma, pH 7.4, % bound to plasma
HepG2 cells = assay: Cytotoxicity against HepG2 cells (CellTiter-Glo); format: cell-based, human; conditions: Table S4
Protocol: Compounds were tested for cytotoxicity against HepG2 cells as previously described.[48],[69],[70] Briefly, cells were exposed to compounds for 48–72 h, and viability was measured using CellTiter-Glo (Promega).

wild-type Mtb H37Rv = format: in vivo, 129sv DHP-1 knockout mice; conditions: 50 mg/kg sc bid + clavulanate 100 mg/kg po bid, days 9-15, lungs day 16; untreated day 16 mean 9.1
[21] = Caco-2, pH 7.4, Caco-2 Mean Recovery % A to B
[22] = Caco-2, pH 7.4, Caco-2 Mean Recovery % B to A

O=C(CCCC(NC(=O)c1ccc(Cl)cc1Cl)C(=O)O)N[C@@H]1C(=O)N2C(C(=O)O)=C(CSc3cccc[n+]3[O-])CS[C@H]12 (some centres unmarked) [TBBL-0000552]
Tlast [1]: 3.0 h
AUC(0-t) (in vivo [2]; iv, 5 mg/kg): 7570 ng·h/mL
Vd (in vivo [2]; iv, 5 mg/kg): 0.74 L/kg
clearance (in vivo [2]; iv, 5 mg/kg): 11 mL/min/kg
half-life (in vivo [2]; iv, 5 mg/kg): 46.8 min
k el (in vivo [2]; iv, 5 mg/kg): 0.000247 s⁻¹
AUC(0-t) (in vivo [2]; po, 25 mg/kg): 42 ng·h/mL
bioavailability (in vivo [2]; po, 25 mg/kg): 0.11%
E.coli R + CLAV (MIC90) (E. coli): 92.6 µM
AUC(0-t) (in vivo [3]): 3660 ng·h/mL
Cmax (in vivo [3]): 6190 ng/mL
Tmax (in vivo [3]): 30 min
AUC(0-t) (in vivo [4]; 300 mg/kg): 61900 ± 24900 ng·h/mL
Cmax (in vivo [4]; 300 mg/kg): 29900 ± 11000 ng/mL
Tmax (in vivo [4]; 300 mg/kg): 60 to 120 min
S.aureus R + CLAV (MIC90) (S. aureus): > 100 µM
P.aeruginosa R + CLAV (MIC90) (P. aeruginosa): > 100 µM
fraction unbound at 4 h, 2 μM (in vitro [5]): 0.109
fraction unbound at 4 h, 2 μM (in vitro [6]): 0.417
remaining at 2 h, 2 μM (in vitro [7]): 89.4%
fraction unbound at 4 h, 2 μM (in vitro [8]): 0.198
Mtb H37Rv R + CLAV (MIC90) (Mtb H37Rv [9]): 2.9 µM
Mtb H37Rv R (MIC90) (Mtb H37Rv [9]): 2.8 µM
Caco-2 Rank Papp (Caco-2 cells): Low
fraction unbound at 4 h, 2 μM (in vitro [10]): 0.143
remaining at 2 h, 2 μM (in vitro [11]): 119%
C.albicans R (MIC90) (C. albicans): > 100 µM
Tlast ([12]; 300 mg/kg sc): 4.0 h
remaining at 2 h, 2 μM (in vitro [13]): 77.9%
remaining at 6 h, 10 μM (physchem [14]): 111%
remaining at 24 h, 10 μM (physchem [14]): 106%
remaining at 1 h, 10 μM (physchem [15]): 105%
remaining at 24 h, 10 μM (physchem [15]): 61.5%
Papp A→B at 120 min, 3 μM (in vitro [16]): < 0.43 ×10⁻⁶ cm/s
Papp B→A at 120 min, 3 μM (in vitro [16]): 0.38 ×10⁻⁶ cm/s
recovery at 120 min, 3 μM (in vitro [16]; [21]): < 106%
recovery at 120 min, 3 μM (in vitro [16]; [22]): 123%
remaining at 2 h, 2 μM (in vitro [17]): 77.8%
remaining at 2 h, 2 μM (in vitro [18]): 78.6%
Mtb H37Rv NR + CLAV (MIC90) (Mtb H37Rv [19]): 2.1 µM
Mtb H37Rv NR (MIC90) (Mtb H37Rv [19]): 1.9 µM
fraction unbound at 4 h, 2 μM (in vitro [20]): 0.439
HepG2 LD50 (HepG2 cells): 74.3 µM
Log10 CFU per mouse (lungs), Mean (wild-type Mtb H37Rv): 9.4 Log10 CFU

O=C(O)C1=C(CSc2cccc[n+]2[O-])CS[C@@H]2[C@H](NC(=O)/C(=N\Oc3ccccc3)c3ccco3)C(=O)N12 [TBBL-0000005]
Tlast [1]: 6.0 h
AUC(0-t) (in vivo [2]; iv, 5 mg/kg): 3330 ng·h/mL
Vd (in vivo [2]; iv, 5 mg/kg): 0.23 L/kg
clearance (in vivo [2]; iv, 5 mg/kg): 5 mL/min/kg
half-life (in vivo [2]; iv, 5 mg/kg): 32.4 min
k el (in vivo [2]; iv, 5 mg/kg): 0.000356 s⁻¹
AUC(0-t) (in vivo [2]; po, 25 mg/kg): 97 ng·h/mL
bioavailability (in vivo [2]; po, 25 mg/kg): 0.11%
E.coli R + CLAV (MIC90) (E. coli): > 100 µM
AUC(0-t) (in vivo [3]): 7920 ng·h/mL
Cmax (in vivo [3]): 4130 ng/mL
Tmax (in vivo [3]): 30 min
AUC(0-t) (in vivo [4]; 50 mg/kg): 18200 ± 7180 ng·h/mL
Cmax (in vivo [4]; 50 mg/kg): 26600 ± 10000 ng/mL
Tmax (in vivo [4]; 50 mg/kg): 15 to 30 min
S.aureus R + CLAV (MIC90) (S. aureus): 0.8 µM
P.aeruginosa R + CLAV (MIC90) (P. aeruginosa): > 100 µM
fraction unbound at 4 h, 2 μM (in vitro [5]): 0.121
fraction unbound at 4 h, 2 μM (in vitro [6]): 0.186
remaining at 2 h, 2 μM (in vitro [7]): 60.6%
fraction unbound at 4 h, 2 μM (in vitro [8]): 0.06
Mtb H37Rv R + CLAV (MIC90) (Mtb H37Rv [9]): 2.7 µM
Mtb H37Rv R (MIC90) (Mtb H37Rv [9]): 2.9 µM
Caco-2 Rank Papp (Caco-2 cells): Low
fraction unbound at 4 h, 2 μM (in vitro [10]): 0.129
remaining at 2 h, 2 μM (in vitro [11]): 108%
C.albicans R (MIC90) (C. albicans): > 100 µM
Comments (tolerability) ([12]; 50 mg/kg sc): No side effects
Tlast ([12]; 50 mg/kg sc): 2.0 to 4.0 h
remaining at 2 h, 2 μM (in vitro [13]): 51.3%
remaining at 6 h, 10 μM (physchem [14]): 98.7%
remaining at 24 h, 10 μM (physchem [14]): 98.5%
remaining at 1 h, 10 μM (physchem [15]): 120%
remaining at 24 h, 10 μM (physchem [15]): 76.6%
Papp A→B at 120 min, 3 μM (in vitro [16]): < 0.33 ×10⁻⁶ cm/s
Papp B→A at 120 min, 3 μM (in vitro [16]): < 0.28 ×10⁻⁶ cm/s
recovery at 120 min, 3 μM (in vitro [16]; [21]): < 88.9%
recovery at 120 min, 3 μM (in vitro [16]; [22]): < 89.8%
remaining at 2 h, 2 μM (in vitro [17]): 35.2%
remaining at 2 h, 2 μM (in vitro [18]): 73.7%
Mtb H37Rv NR + CLAV (MIC90) (Mtb H37Rv [19]): 1.5 µM
Mtb H37Rv NR (MIC90) (Mtb H37Rv [19]): 1.8 µM
fraction unbound at 4 h, 2 μM (in vitro [20]): 0.06
HepG2 LD50 (HepG2 cells): 88.7 µM
Log10 CFU per mouse (lungs), Mean (wild-type Mtb H37Rv): 8.9 Log10 CFU
